What was measured:
LAMP reaction = assay: LAMP amplification activity in the presence of lytic agents / lytic peptides; type: biochemical; conditions: for inhibiting effect on the LAMP amplification efficiency: 5 μM antimicrobial peptide in LAMP reaction
Method: Loop-mediated isothermal amplification activity in the presence of different lytic agents. Percentage of amplification activity in the presence of 0.1% polyethylene glycol p-(1,1,3,3-tetramethylbutyl)-phenyl ether, 0.1 mg/ml lysozyme (with or without 0.1% polyethylene glycol p-(1,1,3,3-tetramethylbutyl)-phenyl ether or 1 mM EDTA) or alkaline lysis components.
Loop-mediated isothermal amplification activity in the presence of different lytic peptides. Percentage of amplification activity in the presence of 5 μM antimicrobial peptides.

E. coli = assay: Loop-mediated isothermal amplification directly from E. coli cell lysates after pretreatment of urine spiked E. coli; type: cell-based, Escherichia coli
Method: Loop-mediated isothermal amplification directly from E. coli cell lysates. Isothermal amplification after pretreatment of urine spiked E. coli with different lysate preparation techniques. Lysozyme was used at 1 mg/ml concentration, polyethylene glycol p-(1,1,3,3-tetramethylbutyl)-phenyl ether at 1% and peptides at 50 μM concentration for the biological sample treatment. All sample pretreatments were performed for 5 min at RT° C. (except for heat treatment that was incubated at 95° C.).
A biological sample containing E. coli bacteria (urine sample in FIG. 6) is treated with 50 μM antimicrobial peptide belonging to but not limited to cecropin group (Cecropin P1 or SB-37 in FIG. 6) for 5 min at RT° C. 5 μl of the urine sample is added directly to the loop-mediated amplification reaction, so that final reaction volume is 50 μl and final components concentration as follows: 0.2 μM F3 primer, 0.2 μM B3 primer, 1.6 μM BIP primer, 1.6 μM FIP primer, 0.8 μM LF primer, 0.8 μM LB primer, 8 mM MgSO4, 1.4 mM dNTP, 0.8M betain, 20 mM Tris-HCl pH 8.8, 10 mM KCl, 10 mM (NH4)2SO4, 0.1% (v/v) Tween 20 and 16 units of Bsm polymerase.

Compound: CC[C@H](C)[C@H](NC(=O)CN)C(=O)NCC(=O)N[C@@H](C)C(=O)N[C@H](C(=O)N[C@@H](CC(C)C)C(=O)N[C@@H](CCCCN)C(=O)N[C@H](C(=O)N[C@@H](CC(C)C)C(=O)N[C@H](C(=O)N[C@H](C(=O)NCC(=O)N[C@@H](CC(C)C)C(=O)N1CCC[C@H]1C(=O)N[C@@H](C)C(=O)N[C@@H](CC(C)C)C(=O)N[C@H](C(=O)N[C@@H](CO)C(=O)N[C@@H](Cc1c[nH]c2ccccc12)C(=O)N[C@H](C(=O)N[C@@H](CCCCN)C(=O)N[C@@H](CCCNC(=N)N)C(=O)N[C@@H](CCCCN)C(=O)N[C@@H](CCCNC(=N)N)C(=O)N[C@@H](CCC(N)=O)C(=O)N[C@@H](CCC(N)=O)C(N)=O)[C@@H](C)CC)[C@@H](C)CC)[C@@H](C)O)[C@@H](C)O)C(C)C)C(C)C [melittin]
- inhibiting effect on the LAMP amplification efficiency (LAMP reaction): inhibiting effect comparable to alkaline lysis components

Compound: Bombolitin III
- inhibiting effect on the LAMP amplification efficiency (LAMP reaction): only mild inhibition

Compound: Cecropin P1 (SWLSKTAKKLENSAKKRISEGIAIAIQGGPR; listed as Ascaris suum)
- increase of the target DNA available for the isothermal amplification (E. coli; 50 μM peptide, 5 min at RT, urine spiked E. coli, LAMP (FIG. 6)): 6 times
- effect of sample pre-treatment on isothermal amplification efficiency (E. coli; urine sample, peptide pre-treatment (FIG. 6)): enhancing effect
- inhibiting effect on the LAMP amplification efficiency (LAMP reaction): lowest inhibitory effect
- inhibiting effect on the LAMP amplification efficiency (LAMP reaction; listed as P1): only mild inhibition

Compound: MSI-78
- inhibiting effect on the LAMP amplification efficiency (LAMP reaction): quite severe inhibiting effect

Compound: MSI-594
- inhibiting effect on the LAMP amplification efficiency (LAMP reaction): quite severe inhibiting effect

Compound: lysozyme
- effect on the amplification efficiency (LAMP reaction; lysozyme alone, 0.1 mg/ml in LAMP reaction): very modest effect
- isothermal amplification efficiency (LAMP reaction; lysozyme in combination with lysis enhancing agents (polyethylene glycol p-(1,1,3,3-tetramethylbutyl)-phenyl ether or EDTA)): significantly reduced
